Results published in publication PMC10226046, “Prodrug Strategies for the Development of β-L-5-((E)-2-Bromovinyl)-1-((2S,4S)-2-(hydroxymethyl)-1,3-(dioxolane-4-yl))uracil (L-BHDU) against Varicella Zoster Virus (VZV)” (Journal of Medicinal Chemistry, 2023).
Read-outs that look alike come from different tables or passages of the source.

Columns and labels:
VZV-ORF57-Luc [1] = test: microbe, parasite or virus in culture; type: cell-based, Varicella zoster virus; conditions: Human alphaherpesvirus 3, ARPE-19
[2] = Oral pharmacokinetic absorption study in BALB/c mice (plasma, LC-MS/MS); type: in vivo; conditions: after oral 22.5 mg/kg POM-L-BHDU-MP, LC/MS
Description: A pharmacokinetic absorption study was performed in BALB/c mice (Charles River). A single equimolar dose of 22.5 mg/kg POM-L-BHDU-MP or 11.4 mg/kg L-BHDU was dissolved in Cremophor–dimethyl sulfoxide (DMSO)–saline (1:1:8) and administered by oral gavage to two groups of mice with equal numbers of male and female mice (N = 15 each male and female).
Plasma was separated from red blood cells and immediately frozen at −80 °C.
This animal protocol #282 was approved by the IACUC at SUNY Upstate Medical University, which has been fully accredited by AAALAC since 7/31/1999. This method was previously used to evaluate L-BHDU effects on 5-fluorouracil metabolism.[16] Briefly, a single equimolar dose of 22.5 mg/kg POM-L-BHDU-MP or 11.4 mg/kg L-BHDU was dissolved in Cremophor–DMSO–saline (1:1:8) and administered by oral gavage to two groups of BALB/c mice (Charles River) with equal numbers of male and female mice (N = 15 each male and female). Six untreated mice were used for blank controls and were labeled time 0. At 20, 40, 60, and 120 min, three mice from the POM-L-BHDU-MP group and three mice from the L-BHDU group were anesthetized with inhaled isoflurane and then exsanguinated by cardiac puncture. Blood samples were collected into a tube containing heparin. Plasma was separated from red blood cells by centrifugation at 10,000 rpm for 5 min. Plasma was transferred to a new tube and immediately frozen at −80 °C.
Plasma samples were thawed, and exactly 0.95 mL was removed for analysis. The internal standard azidothymidine was added to mouse plasma samples at a final concentration of 20 ng/mL. Proteins were precipitated from the plasma by adding 2× volumes of methanol, then the samples were clarified by centrifugation. The supernatants were dried using an N-EVAP 116 analytical nitrogen evaporator and then reconstituted with 50% methanol in water. LC-MS/MS was used to analyze the concentrations of POM-L-BHDU-MP, L-BHDU, and L-BHDU-MP. Calibration curves were made using BALB/c mouse plasma (Innovative Research, Inc. Novi MI) prior to analyzing the experimental samples.
The primary stock solutions for the calibration were prepared at 0.5 mg/mL for L-BHDU, 1 mg/mL for POM-L-BHDU-MP, and 1 mg/mL for L-BHDU-MP. The primary stock solutions were diluted to working solutions that were in turn used to spike the biological matrix of interest. L-BHDU calibration points were 100.0, 400.0, 800.0, 1000.0, 4000.0, 6000.0, 8000.0, 10,000.0, and 12,000.0 ng/mL. L-BHDU-MP calibration points were 100.0, 200.0, 400.0, 800.0, 1000.0, 2000.0, 4000.0, 6000.0, and 8000.0 ng/mL. The ISTD working solution of AZT was prepared at 20 ng/mL. The standard stock solutions were stored in −80 °C freezer until used. […] The samples were analyzed in a negative ESI mode. […]

VZV-ORF57-Luc [3] = test: microbe, parasite or virus in culture; conditions: Human alphaherpesvirus 3, ARPE-19, cell-free VZV-ORF57-Luc, ARPE-19 cells, 72 hpi, bioluminescence imaging
VZV-ORF57-Luc [4] = conditions: for EC50: cell-free VZV-ORF57-Luc, ARPE-19 cells, 72 hpi, bioluminescence imaging

CC(C)(C)C(=O)OCOP(=O)(OCOC(=O)C(C)(C)C)OC[C@H]1OC[C@@H](n2cc(/C=C/Br)c(=O)[nH]c2=O)O1 [POM-L-BHDU-MP (41), Bis(POM) Prodrug of L-BHDU-MP]
EC50 (VZV-ORF57-Luc [1]): 0.051 µM
L-BHDU-MP detected in plasma [2]: below the limit of quantitation
EC50 (VZV-ORF57-Luc [3]): 0.035 µM
SI (CC50/EC50) (VZV-ORF57-Luc [4]): >2809
EC50 (VZV-ORF57-Luc [4]): 0.0356 µM
EC50 (VZV-ORF57-Luc [4]; listed as POM-L-BHDU-MP): 0.036 µM
SI (CC50/EC50) (VZV-ORF57-Luc [4]; selectivity index = CC50/EC50, ARPE-19 cells): >2809
SI (CC50/EC50) (VZV-ORF57-Luc [4]; selectivity index = CC50/EC50, ARPE-19 cells, listed as POM-L-BHDU-MP): > 2809
